Reference: ChEMBL document CHEMBL5154747, “Discovery of new carbonic anhydrase IX inhibitors as anticancer agents by toning the hydrophobic and hydrophilic rims of the active site to encounter the dual-tail approach” (Eur J Med Chem, 2022)

System: UACC-257
Assay: Anticancer activity against human UACC-257 cells assessed as cell growth inhibition at 10 uM incubated for 48 hrs by SRB assay relative to control
Type: functional
Settings: read-out: GI

SMILES	inhibition of growth at 10 µM [%]
NS(=O)(=O)c1ccc(Nc2nc(N/N=C/CCc3ccccc3)nc(Nc3ccccc3)n2)cc1	< 10
NS(=O)(=O)c1ccc(Nc2nc(N/N=C/c3c[nH]c4ccccc34)nc(Nc3ccccc3)n2)cc1	36

System: BT-549
Assay: Anticancer activity against human BT-549 cells assessed as cell growth inhibition at 10 uM incubated for 48 hrs by SRB assay relative to control
Type: functional
Settings: read-out: GI

SMILES	inhibition of growth at 10 µM [%]
NS(=O)(=O)c1ccc(Nc2nc(N/N=C/CCc3ccccc3)nc(Nc3ccccc3)n2)cc1	< 10
NS(=O)(=O)c1ccc(Nc2nc(N/N=C/c3c[nH]c4ccccc34)nc(Nc3ccccc3)n2)cc1	51

System: TK-10
Assay: Anticancer activity against human TK-10 cells assessed as cell growth inhibition at 10 uM incubated for 48 hrs by SRB assay relative to control
Type: functional
Settings: read-out: GI

SMILES	inhibition of growth at 10 µM [%]
NS(=O)(=O)c1ccc(Nc2nc(N/N=C/CCc3ccccc3)nc(Nc3ccccc3)n2)cc1	< 10
NS(=O)(=O)c1ccc(Nc2nc(N/N=C/c3c[nH]c4ccccc34)nc(Nc3ccccc3)n2)cc1	20

System: NCI-H322M
Assay: Anticancer activity against human NCI-H322M cells assessed as cell growth inhibition at 10 uM incubated for 48 hrs by SRB assay relative to control
Type: functional
Settings: read-out: GI

SMILES	inhibition of growth at 10 µM [%]
NS(=O)(=O)c1ccc(Nc2nc(N/N=C/CCc3ccccc3)nc(Nc3ccccc3)n2)cc1	< 10
NS(=O)(=O)c1ccc(Nc2nc(N/N=C/c3c[nH]c4ccccc34)nc(Nc3ccccc3)n2)cc1	45

System: PC-3
Assay: Anticancer activity against human PC-3 cells assessed as cell growth inhibition at 10 uM incubated for 48 hrs by SRB assay relative to control
Type: functional
Settings: read-out: GI

SMILES	inhibition of growth at 10 µM [%]
NS(=O)(=O)c1ccc(Nc2nc(N/N=C/CCc3ccccc3)nc(Nc3ccccc3)n2)cc1	< 10
NS(=O)(=O)c1ccc(Nc2nc(N/N=C/c3c[nH]c4ccccc34)nc(Nc3ccccc3)n2)cc1	73

System: MCF7
Assay: Anticancer activity against human MCF7 cells assessed as cell growth inhibition at 10 uM incubated for 48 hrs by SRB assay relative to control
Type: functional
Settings: read-out: GI

SMILES	inhibition of growth at 10 µM [%]
NS(=O)(=O)c1ccc(Nc2nc(N/N=C/CCc3ccccc3)nc(Nc3ccccc3)n2)cc1	< 10
NS(=O)(=O)c1ccc(Nc2nc(N/N=C/c3c[nH]c4ccccc34)nc(Nc3ccccc3)n2)cc1	81

System: SF-295
Assay: Anticancer activity against human SF-295 cells assessed as cell growth inhibition at 10 uM incubated for 48 hrs by SRB assay relative to control
Type: functional
Settings: read-out: GI

SMILES	inhibition of growth at 10 µM [%]
NS(=O)(=O)c1ccc(Nc2nc(N/N=C/CCc3ccccc3)nc(Nc3ccccc3)n2)cc1	< 10
NS(=O)(=O)c1ccc(Nc2nc(N/N=C/c3c[nH]c4ccccc34)nc(Nc3ccccc3)n2)cc1	68

System: NCI/ADR-RES
Assay: Anticancer activity against human NCI/ADR-RES cells assessed as cell growth inhibition at 10 uM incubated for 48 hrs by SRB assay relative to control
Type: functional
Settings: read-out: GI

SMILES	inhibition of growth at 10 µM [%]
NS(=O)(=O)c1ccc(Nc2nc(N/N=C/CCc3ccccc3)nc(Nc3ccccc3)n2)cc1	< 10
NS(=O)(=O)c1ccc(Nc2nc(N/N=C/c3c[nH]c4ccccc34)nc(Nc3ccccc3)n2)cc1	< 10

System: MDA-MB-435
Assay: Anticancer activity against human MDA-MB-435 cells assessed as cell growth inhibition at 10 uM incubated for 48 hrs by SRB assay relative to control
Type: functional
Settings: read-out: GI

SMILES	inhibition of growth at 10 µM [%]
NS(=O)(=O)c1ccc(Nc2nc(N/N=C/CCc3ccccc3)nc(Nc3ccccc3)n2)cc1	< 10
NS(=O)(=O)c1ccc(Nc2nc(N/N=C/c3c[nH]c4ccccc34)nc(Nc3ccccc3)n2)cc1	68

System: DU-145
Assay: Anticancer activity against human DU-145 cells assessed as cell growth inhibition at 10 uM incubated for 48 hrs by SRB assay relative to control
Type: functional
Settings: read-out: GI

SMILES	inhibition of growth at 10 µM [%]
NS(=O)(=O)c1ccc(Nc2nc(N/N=C/CCc3ccccc3)nc(Nc3ccccc3)n2)cc1	< 10
NS(=O)(=O)c1ccc(Nc2nc(N/N=C/c3c[nH]c4ccccc34)nc(Nc3ccccc3)n2)cc1	56

System: A498
Assay: Anticancer activity against human A498 cells assessed as cell growth inhibition at 10 uM incubated for 48 hrs by SRB assay relative to control
Type: functional
Settings: read-out: GI

SMILES	inhibition of growth at 10 µM [%]
NS(=O)(=O)c1ccc(Nc2nc(N/N=C/CCc3ccccc3)nc(Nc3ccccc3)n2)cc1	< 10
NS(=O)(=O)c1ccc(Nc2nc(N/N=C/c3c[nH]c4ccccc34)nc(Nc3ccccc3)n2)cc1	48

System: OVCAR-4
Assay: Anticancer activity against human OVCAR-4 cells assessed as cell growth inhibition at 10 uM incubated for 48 hrs by SRB assay relative to control
Type: functional
Settings: read-out: GI

SMILES	inhibition of growth at 10 µM [%]
NS(=O)(=O)c1ccc(Nc2nc(N/N=C/CCc3ccccc3)nc(Nc3ccccc3)n2)cc1	< 10
NS(=O)(=O)c1ccc(Nc2nc(N/N=C/c3c[nH]c4ccccc34)nc(Nc3ccccc3)n2)cc1	40

System: SK-MEL-2
Assay: Anticancer activity against human SK-MEL-2 cells assessed as cell growth inhibition at 10 uM incubated for 48 hrs by SRB assay relative to control
Type: functional
Settings: read-out: GI

SMILES	inhibition of growth at 10 µM [%]
NS(=O)(=O)c1ccc(Nc2nc(N/N=C/CCc3ccccc3)nc(Nc3ccccc3)n2)cc1	< 10
NS(=O)(=O)c1ccc(Nc2nc(N/N=C/c3c[nH]c4ccccc34)nc(Nc3ccccc3)n2)cc1	32

System: HOP-62
Assay: Anticancer activity against human HOP-62 cells assessed as cell growth inhibition at 10 uM incubated for 48 hrs by SRB assay relative to control
Type: functional
Settings: read-out: GI

SMILES	inhibition of growth at 10 µM [%]
NS(=O)(=O)c1ccc(Nc2nc(N/N=C/CCc3ccccc3)nc(Nc3ccccc3)n2)cc1	< 10
NS(=O)(=O)c1ccc(Nc2nc(N/N=C/c3c[nH]c4ccccc34)nc(Nc3ccccc3)n2)cc1	36

System: NCI-H226
Assay: Anticancer activity against human NCI-H226 cells assessed as cell growth inhibition at 10 uM incubated for 48 hrs by SRB assay relative to control
Type: functional
Settings: read-out: GI

SMILES	inhibition of growth at 10 µM [%]
NS(=O)(=O)c1ccc(Nc2nc(N/N=C/CCc3ccccc3)nc(Nc3ccccc3)n2)cc1	< 10
NS(=O)(=O)c1ccc(Nc2nc(N/N=C/c3c[nH]c4ccccc34)nc(Nc3ccccc3)n2)cc1	58

System: KM12
Assay: Anticancer activity against human KM12 cells assessed as cell growth inhibition at 10 uM incubated for 48 hrs by SRB assay relative to control
Type: functional
Settings: read-out: GI

SMILES	inhibition of growth at 10 µM [%]
NS(=O)(=O)c1ccc(Nc2nc(N/N=C/CCc3ccccc3)nc(Nc3ccccc3)n2)cc1	< 10
NS(=O)(=O)c1ccc(Nc2nc(N/N=C/c3c[nH]c4ccccc34)nc(Nc3ccccc3)n2)cc1	72

System: MDA-MB-231
Assay: Anticancer activity against human MDA-MB-231 cells assessed as cell growth inhibition at 10 uM incubated for 48 hrs by SRB assay relative to control
Type: functional
Settings: read-out: GI

SMILES	inhibition of growth at 10 µM [%]
NS(=O)(=O)c1ccc(Nc2nc(N/N=C/CCc3ccccc3)nc(Nc3ccccc3)n2)cc1	< 10
NS(=O)(=O)c1ccc(Nc2nc(N/N=C/c3c[nH]c4ccccc34)nc(Nc3ccccc3)n2)cc1	51

System: MOLT-4
Assay: Anticancer activity against human MOLT-4 cells assessed as cell growth inhibition at 10 uM incubated for 48 hrs by SRB assay relative to control
Type: functional
Settings: read-out: GI

SMILES	inhibition of growth at 10 µM [%]
NS(=O)(=O)c1ccc(Nc2nc(N/N=C/CCc3ccccc3)nc(Nc3ccccc3)n2)cc1	< 10
NS(=O)(=O)c1ccc(Nc2nc(N/N=C/c3c[nH]c4ccccc34)nc(Nc3ccccc3)n2)cc1	80

System: A549
Assay: Anticancer activity against human A549 cells assessed as cell growth inhibition at 10 uM incubated for 48 hrs by SRB assay relative to control
Type: functional
Settings: read-out: GI

SMILES	inhibition of growth at 10 µM [%]
NS(=O)(=O)c1ccc(Nc2nc(N/N=C/CCc3ccccc3)nc(Nc3ccccc3)n2)cc1	< 10
NS(=O)(=O)c1ccc(Nc2nc(N/N=C/c3c[nH]c4ccccc34)nc(Nc3ccccc3)n2)cc1	21

System: SF-268
Assay: Anticancer activity against human SF-268 cells assessed as cell growth inhibition at 10 uM incubated for 48 hrs by SRB assay relative to control
Type: functional
Settings: read-out: GI

SMILES	inhibition of growth at 10 µM [%]
NS(=O)(=O)c1ccc(Nc2nc(N/N=C/CCc3ccccc3)nc(Nc3ccccc3)n2)cc1	< 10
NS(=O)(=O)c1ccc(Nc2nc(N/N=C/c3c[nH]c4ccccc34)nc(Nc3ccccc3)n2)cc1	40
